Source: patent US10253274B2, “Compounds and methods for inhibiting corrosion in hydrocarbon processing units” (General Electric Company, priority 2012, dated 2019)
Where two headings read alike, the source gives them in different places.

Tests used:
pKa of the amine = type: physicochemical
Source text: Another factor indicative of the overall efficiency of a given amine is the logarithm of the acid dissociation constant, pKa. Generally, amines with higher pKa values are more efficient neutralizers. Accordingly, in another embodiment, the treatment composition may comprise an amine with a pKa equal to or greater than about 5.0.

[1] = Neutralization efficiency by two-phase titration (pH at amine titrant concentration); type: physicochemical; conditions: 100° C.; for Neutral. Efficiency pH at 250 ppm: 250 ppm amine titrant; for Neutral. Efficiency pH at 500 ppm: 500 ppm amine titrant; for Neutral. Efficiency pH at 1000 ppm: 1000 ppm amine titrant
Protocol: Several amines were tested to determine their efficiencies in neutralizing acidic species and reducing deposits of hydrochloride and amine salts. The neutralization efficiency of these amines was tested using two-phase titration. For each amine tested, a titrand (100 ml) was placed in a flask. The titrand was designed to simulate an initial condensate and comprised 90 vol % naphtha and 10 vol % acidic water. The titrand was heated to 100° C. and maintained at that temperature while amine titrant was added to the flask.
A second set of tests were performed using some of the effective amines above. Additional tertiary amines were also tested and found to be effective. The additional tertiary amines were N-methyl piperidine, 2-dimethylamino 2-methyl 1-propanol (“DMAMP”) in an azeotropic solution comprising 80 wt % amine, N,N,N′,N′-tetramethyldiamino methane (“TMMD”), dimethyl tertiary butanolamine (“DMTBA”), and dimethyl methoxypropylamine (“DMMOPA”). The neutralization efficiency of these amines was tested using two-phase titration. For each amine tested, a titrand (100 ml) was placed in a flask. The titrand was designed to simulate an initial condensate and comprised 90 vol % naphtha and 10 vol % acidic water. The titrand was heated to 100° C. and maintained at that temperature while amine titrant was added to the flask. The tests were repeated 3 times in the second set of tests. The data in Table 2 are the averages of the 3 repeated tests.

[2] = Amine-HCl salt precipitation potential index (Salt PPI) relative to ammonia salt; type: physicochemical; conditions: average over 225 to 300° F., ammonia benchmark = 1.0
Source text: Without limiting this specification to any particular theory of operation, the overall efficiency of a given amine may be predicted upon assessment of several factors. One such factor is the amine-HCl salt precipitation potential index (“Salt PPI”). The Salt PPI may also be known by those in the art as the salt volatility index. These indices are merely a comparison of the precipitation potential of the amine salt to the salt of a typical neutralizing compound used in hydrocarbon refining, ammonia.
Salt PPI may be calculated from the equation: […]
If one were to substitute the vapor pressure of ammonia for the vapor pressure of the amine in the equation, the Salt PPI would be 1.0. Effective amines are those that are as good, if not better than the typical additive, ammonia. Thus, effective amines would have a Salt PPI of equal to or less than 1.0. Other neutralizers commonly used in hydrocarbon refining are trimethylamine and N-methylmorpholine.

Boiling point = conditions: Table 2
[3] = Table 2, second set, averages of 3 repeated tests

CN(C)C [Trimethylamine (TMA), Trimethylamine, reference compound]
Solubility Oil/Water (Solubility Oil/Water; Table 1): Water | Solubility Oil/Water (Solubility Oil/Water; Table 2): Water | pKa (pKa of the amine; Table 1, read-out: pKa): 9.76 | pKa (pKa of the amine; Table 2): 9.76 | Neutral. Efficiency pH at 250 ppm ([1]; Table 1, first set of tests): 2.6 | Neutral. Efficiency pH at 500 ppm ([1]; Table 1, first set of tests): 8.0 | Neutral. Efficiency pH at 1000 ppm ([1]; Table 1, first set of tests): 8.8 | Neutral. Efficiency pH at 250 ppm [1, 3]: 2.6 | Neutral. Efficiency pH at 500 ppm [1, 3]: 8.0 | Neutral. Efficiency pH at 1000 ppm [1, 3]: 8.8 | Salt PPI ([2]; Table 1): 0.10 | Salt PPI ([2]; Table 2): 0.10 | Boiling Point (Boiling point): 2.87 °C
